According to patent US9512175B2, “Macrocyclic inhibitors of flaviviridae viruses” (Gilead Sciences, Inc., priority 2012, dated 2016):
pIC50: −log10 of the molar value.

How the values were obtained:
[1] = target: cyclophilin A (Homo sapiens, UniProt P62937); assay: Cyclophilin A TR-FRET competitive binding assay; conditions: IC50 ranges; competition with CsA-Cy5 for His-tagged CypA, two-hour incubation; read-out: TR-FRET
Method: Cyclophilin A TR-FRET Competitive Binding Assay
Inhibitor potency was measured using a competitive binding assay with a time-resolved fluorescence resonance energy transfer (TR-FRET) readout. […] An IC50 value was calculated using a four-parameter logistic fit.

[2] = test system: HCV replicon (Replicon 1a); assay: anti-HCV activity in Huh-7 cell line harboring a HCV replicon (Replicon 1a); format: cell-based; conditions: human hepatoma Huh-7 HCV replicon cells, 3 days, luciferase readout; for inhibition at 1 µM: Hepatitis C virus, Huh-7, 72 h, read-out: Replicon 1a % inhibition at 1 μM, 1 μM

Sequence of cyclophilin A (P62937 whole entry, species assumed): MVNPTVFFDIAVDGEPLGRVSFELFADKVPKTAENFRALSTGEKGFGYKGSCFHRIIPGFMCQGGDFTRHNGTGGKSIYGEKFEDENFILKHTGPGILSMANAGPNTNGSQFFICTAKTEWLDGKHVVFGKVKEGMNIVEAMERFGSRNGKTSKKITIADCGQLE

Row | SMILES | pIC50 [1] | Replicon 1a % inhibition at 1 μM [2] | inhibition at 1 µM [2]
1 | COC1CCC=Cc2cccc(c2)C2CCCCN2C(=O)C2CCCN(N2)C(=O)C(C)NC(=O)C(C(C)C)NC(=O)C1C (single isomer, unassigned) [Compound 29] | 5.00 to 6.00 | 28% | 
2 | COC1CCC=Cc2cccc(c2)C2CCCCN2C(=O)C2CCCN(N2)C(=O)C(C)NC(=O)C(C(C)C)NC(=O)C1C (single isomer, unassigned) [Compound 30] | > 7.00 | 73% | 
3 | CO[C@@H]1/C=C/c2cc3cc(ccc3cn2)[C@@H](C)OC(=O)[C@]2(C)CCCN(N2)C(=O)[C@H](C)NC(=O)[C@H](C(C)C)NC(=O)[C@@H]1C (single isomer, unassigned) [Compound 34] | > 7.00 |  | 92%
4 | CC(C)[C@@H]1NC(=O)C(C)(C)COc2cc3cc(ccc3cn2)[C@@H](C)OC(=O)[C@@H]2CCCN(N2)C(=O)[C@H](C)NC1=O (single isomer, unassigned) [Compound 68] | > 7.00 |  | 91%
5 | CC(C)[C@@H]1NC(=O)C(C)(C(C)O)/C=C/c2ccc3ccc(nc3c2)[C@@H](C)OC(=O)[C@@H]2CCCN(N2)C(=O)[C@H](C)NC1=O (single isomer, unassigned) [Compound 87] | > 7.00 |  | 
6 | COCCC1(C)/C=C/c2ccc3ccc(nc3c2)[C@@H](C)OC(=O)[C@@H]2CCCN(N2)C(=O)[C@H](C)NC(=O)[C@H](C(C)C)NC1=O (single isomer, unassigned) [Compound 102] | > 7.00 |  | 100%
7 | COCCC1(C)/C=C/c2ccc3ccc(nc3c2)[C@@H](C)OC(=O)[C@@H]2CCCN(N2)C(=O)[C@H](C)NC(=O)[C@H](C(C)C)NC1=O (single isomer, unassigned) [Compound 103] | > 7.00 |  | 100%
8 | CC(C)[C@@H]1NC(=O)C(C)(C)/C=C/c2ccc3ccc(nc3c2)[C@@H](C)OC(=O)[C@@H]2CCCN(N2)C(=O)[C@H](CC2CCOCC2)NC1=O (single isomer, unassigned) [Compound 112] | > 7.00 |  | 96%
9 | CC(C)[C@@H]1NC(=O)C(C)(C)/C=C/c2ccc3ccc(nc3c2)[C@@H](C)OC(=O)[C@@H]2CCCN(N2)C(=O)C(CC2CCOCC2)NC1=O (single isomer, unassigned) [Compound 113] | 6.00 to 7.00 |  | 13%
10 | COC[C@@H]1NC(=O)[C@H](C(C)C)NC(=O)C(C)(C)/C=C/c2ccc3ccc(nc3c2)[C@@H](C)OC(=O)[C@@H]2CCCN(N2)C1=O (single isomer, unassigned) [Compound 117] | > 7.00 |  | 100%
11 | CC(C)[C@@H]1NC(=O)C(C)(C)/C=C/c2ccc3ccc(nc3c2)[C@H]2CCCN2C(=O)[C@@H]2CCCN(N2)C(=O)[C@H](C)NC1=O (single isomer, unassigned) [Compound 150] | > 7.00 |  | 95%
12 | CC(C)[C@@H]1NC(=O)C(C)(C)/C=C/c2ccc3ccc(nc3c2)[C@@H]2CCCN2C(=O)[C@@H]2CCCN(N2)C(=O)[C@H](C)NC1=O (single isomer, unassigned) [Compound 151] | 5.00 to 6.00 |  | 0%
13 | CC(C)[C@@H]1NC(=O)[C@H](C)[C@H](O)CC/C=C/c2cccc(c2)[C@@H](C)NC(=O)[C@@H]2CCCN(N2)C(=O)[C@H](C)NC1=O [Compound 1, (E)-(2R,5S,11S,14S,17R,18R)-18-Hydroxy-14-isopropyl-2,11,17-trimethyl-3,9,12,15,28-pentaaza-tricyclo[21.3.1.1*5,9*]octacosa-1(26),21,23(27),24-tetraene-4,10,13,16-tetraone] | > 7.00 |  | 32%
14 | CC(C)[C@@H]1NC(=O)[C@H](C)[C@H](OCC(F)(F)F)CC/C=C/c2cccc(c2)[C@@H](C)NC(=O)[C@@H]2CCCN(N2)C(=O)[C@H](C)NC1=O [Compound 2, (E)-(2R,5S,11 S,14S,17R,18R)-14-Isopropyl-2,11,17-trimethyl-18-(2,2,2-trifluoro-ethoxy)-3,9,12,15,28-pentaaza-tricyclo[21.3.1.1*5,9*]octacosa-1(26),21,23(27),24-tetraene-4,10,13,16-tetraone] | 6.00 to 7.00 |  | 63%
15 | CC(C)[C@@H]1NC(=O)[C@H](C)[C@H](O)CCCCc2cccc(c2)[C@@H](C)NC(=O)[C@@H]2CCCN(N2)C(=O)[C@H](C)NC1=O [Compound 3, (2R,5S,11S,14S,17R,18R)-18-Hydroxy-14-isopropyl-2,11,17-trimethyl-3,9,12,15,28-pentaaza-tricyclo[21.3.1.1*5,9*]octacosa-1(26),23(27),24-triene-4,10,13,16-tetraone] | > 7.00 |  | 44%
16 | CC(C)[C@@H]1NC(=O)CCC(C)(C)C/C=C/c2cccc(c2)[C@@H](C)NC(=O)[C@@H]2CCCN(N2)C(=O)[C@H](C)NC1=O [Compound 4] | 6.00 to 7.00 |  | 58%
17 | CO[C@@H]1/C=C/c2cc3cc(ccc3cn2)[C@@H](C)NC(=O)[C@@H]2CCCN(N2)C(=O)[C@H](C)NC(=O)[C@H](C(C)C)NC(=O)[C@@H]1C [Compound 5] | > 7.00 |  | 80%
18 | CO[C@@H]1CCc2cc3cc(ccc3cn2)[C@@H](C)NC(=O)[C@@H]2CCCN(N2)C(=O)[C@H](C)NC(=O)[C@H](C(C)C)NC(=O)[C@@H]1C [Compound 6] | > 7.00 |  | 86%
19 | CC(C)[C@@H]1NC(=O)C/C=C/c2ccc3ncc(nc3c2)[C@@H](C)OC(=O)[C@@H]2CCCN(N2)C(=O)[C@H](C)NC1=O [Compound 7] | > 7.00 |  | 94%
20 | CC(C)[C@@H]1NC(=O)CCCc2cc3cc(ccc3cn2)[C@@H](C)OC(=O)[C@@H]2CCCN(N2)C(=O)[C@H](C)NC1=O [Compound 10] |  |  | 28%
21 | CC(C)[C@@H]1NC(=O)C/C=C/c2cc3cc(ccc3cn2)[C@@H](C)NC(=O)[C@@H]2CCCN(N2)C(=O)[C@H](C)NC1=O [Compound 11] | > 7.00 |  | 6%

Row | SMILES | pIC50 [1] | Replicon 1a % inhibition at 1 μM [2] | inhibition at 1 µM [2]
22 | CC(C)[C@@H]1NC(=O)/C=C\c2cc3cc(ccc3cn2)[C@@H](C)NC(=O)[C@@H]2CCCN(N2)C(=O)[C@H](C)NC1=O [Compound 12] |  |  | 0%
23 | CC(C)[C@@H]1NC(=O)C/C=C/c2ccc3ccc(nc3c2)[C@@H](C)OC(=O)[C@@H]2CCCN(N2)C(=O)[C@H](C)NC1=O [Compound 24] |  |  | 99%
24 | CC(C)[C@@H]1NC(=O)[C@@H]([C@H](C)O)/C=C/c2ccc3ccc(nc3c2)[C@@H](C)OC(=O)[C@@H]2CCCN(N2)C(=O)[C@H](C)NC1=O [Compound 31] |  |  | 98%
25 | C[C@@H]1NC(=O)[C@H](CCN=[N+]=[N-])NC(=O)C(C)(C)/C=C/c2cc3cc(ccc3cn2)[C@@H](C)OC(=O)[C@@H]2CCCN(N2)C1=O [Compound 49] | > 7.00 |  | 
26 | C#CC[C@@H]1NC(=O)C(C)(C)/C=C/c2cc3cc(ccc3cn2)[C@@H](C)OC(=O)[C@@H]2CCCN(N2)C(=O)[C@H](C)NC1=O [Compound 51] | > 7.00 |  | 
27 | CC(C)[C@@H]1NC(=O)C2(/C=C/c3cc4cc(ccc4cn3)[C@@H](C)OC(=O)[C@@H]3CCCN(N3)C(=O)[C@H](C)NC1=O)CC2 [Compound 58] | > 7.00 |  | 
28 | CC(C)[C@@H]1NC(=O)C2(/C=C/c3cc4cc(ccc4cn3)[C@@H](C)OC(=O)[C@@H]3CCCN(N3)C(=O)[C@H](C)NC1=O)CCOCC2 [Compound 59] | > 7.00 |  | 
29 | CC(C)[C@@H]1NC(=O)CCC/C=C/c2cc3cc(ccc3cn2)[C@@H](C)OC(=O)[C@@H]2CCCN(N2)C(=O)[C@H](C)NC1=O [Compound 61] |  |  | 72%
30 | CC(C)[C@@H]1NC(=O)CCCC/C=C/c2cc3cc(ccc3cn2)[C@@H](C)OC(=O)[C@@H]2CCCN(N2)C(=O)[C@H](C)NC1=O [Compound 63] |  |  | 80%
31 | CC(C)[C@@H]1NC(=O)C(C)(C)/C=C/c2cc3cc(cnc3cn2)[C@@H](C)OC(=O)[C@@H]2CCCN(N2)C(=O)[C@H](C)NC1=O [Compound 66] | > 7.00 |  | 
32 | CC(C)[C@@H]1NC(=O)CCCc2ccc3ccc(cc3c2)[C@@H](C)OC(=O)[C@@H]2CCCN(N2)C(=O)[C@H](C)NC1=O [Compound 71] | 6.00 to 7.00 |  | 
33 | CC(C)[C@@H]1NC(=O)C(C)(C)CCc2cc3cc(ccc3cn2)[C@@H](C)OC(=O)[C@@H]2CCCN(N2)C(=O)[C@H](C)NC1=O [Compound 74] |  |  | 95%
34 | CC(C)[C@@H]1NC(=O)C2(/C=C/c3ccc4ccc(nc4c3)[C@@H](C)OC(=O)[C@@H]3CCCN(N3)C(=O)[C@H](C)NC1=O)COC(C)(C)OC2 [Compound 75] | > 7.00 |  | 
35 | CC(C)[C@@H]1NC(=O)C(C)(C2CCOC2)/C=C/c2ccc3ccc(nc3c2)[C@@H](C)OC(=O)[C@@H]2CCCN(N2)C(=O)[C@H](C)NC1=O (stereo partly drawn) [Compound 116] | > 7.00 |  | 
36 | CC(C)[C@@H]1NC(=O)C2(/C=C/c3ccc4ccc(nc4c3)[C@@H](C)OC(=O)[C@@H]3CCCN(N3)C(=O)[C@H](C)NC1=O)CCC(F)(F)CC2 [Compound 121] | > 7.00 |  | 
37 | CC(C)[C@@H]1NC(=O)C2(/C=C/c3ccc4ccc(nc4c3)[C@@H](C)OC(=O)[C@@H]3CCCN(N3)C(=O)[C@H](C)NC1=O)CCN(Cc1ccccc1)CC2 [Compound 128] | > 7.00 |  | 
38 | COc1cc2nc3cc(ccc13)/C=C/C(C)(C)C(=O)N[C@@H](C(C)C)C(=O)N[C@@H](C)C(=O)N1CCC[C@H](N1)C(=O)O[C@@H]2C [Compound 139] | > 7.00 |  | 
39 | CC(C)[C@@H]1NC(=O)C(C)(C)/C=C/c2ccc3c(C#N)cc(nc3c2)[C@@H](C)OC(=O)[C@@H]2CCCN(N2)C(=O)[C@H](C)NC1=O [Compound 140] | 6.00 to 7.00 |  | 
40 | CC(C)[C@@H]1NC(=O)C([C@H](C)O)/C=C/c2ccc3ccc(cc3c2)[C@@H](C)OC(=O)[C@@H]2CCCN(N2)C(=O)[C@@H](C)NC1=O (stereo partly drawn) [Compound 145] | > 7.00 |  | 
41 | Cc1c2ccc3c(Cl)cc(nc13)[C@@H](C)OC(=O)[C@@H]1CCCN(N1)C(=O)[C@H](C)NC(=O)[C@H](C(C)C)NC(=O)C(C)(C)/C=C/2 [Compound 164] | > 7.00 |  | 
